Patent US7820196B2, “Physiologically active agents containing vicinal dithioglycols and use thereof in various branches of economy” (priority 1999, dated 2010)
Values joined by “and” are separate entries in the source; they are usually repeats but may differ in a detail not shown here. Identical values can stand only once.

Tests used:
broilers = assay: Example 5: broilers fed basic ration plus Unithiol; assay type: in vivo
Protocol: A full-ration mixed-fodder was checked for the absence of pathogens and used for feeding broilers. Thirty 15 days broilers were divided into one control and 4 experimental groups having 6 chickens each (3 male and 3 female chickens). Poultry were kept in a four-deck pen. The conditions of feeding such as the basic ration (BR) and the addition of Unithiol according to the protocol were as follows:
Experimental group 1: BR+1.3 mg of “Unithiol” per 1 kg of the body weight;
Experimental group 2: BR+1.7 mg of “Unithiol” per 1 kg of the body weight;
Experimental group 3: BR+2.1 mg of “Unithiol” per 1 kg of the body weight;
Experimental group 4: BR+2.5 mg of “Unithiol” per 1 kg of the body weight.
Feeding was performed in accordance with experimental protocol; broilers received water ad libitum; the experiment was carried out for 42 days.

broiler chickens = assay: Example 6: effect of unithiol on accumulation of heavy metal compounds in tissues of poultry; assay type: in vivo
Protocol: An experiment was conducted, on the inventors' initiative, on the experimental base of the All-Russia research and technological institute for aviculture (VNITIP) during which a study was given to the following tasks: • determination of an effect produced by unithiol (DMPS) on the productivity and meat quality of broiler chickens; • effect produced by unithiol on the accumulation of heavy metal compounds (mercury, cadmium, lead) in various tissues of poultry.
The experiment was carried out in a vivarium on broiler chickens of one cross. Poultry was grown in cell batteries from one day to six-week age. The operating parameters and feeding level met the recommendation VNITIP 1999. The experiment was conducted according to the diagram on Table 1.
The poultry population: 1 and 2 groups, 35 heads each; 3,4,5 groups—6 heads each.
13. Contained heavy metal residual compounds (mercury, cadmium, lead) in mixed feed for the broilers.
14. Evaluation of the level of meat contamination and internal organs (liver and kidneys) of the broilers with heavy metal salts.

[1] = test system: participants (males and females) taking 1 l dark beer every evening; assay: Example 7: hangover and biochemical indices in participants taking dark beer with Unithiol or placebo; assay type: in vivo, human; settings: for MDA (urine) / ALT (blood) / AST (blood) / SH-gr. (blood) / Triglycerides (blood) / Urate (blood) / Vit. A (blood) / Vit. E (blood): one value per participant
Source text: The tests were held upon the offer's proposal. The Moscow scientific and practical Center for the drug prophylactic of the Moscow health Administration was taken as the base for it.
The experiment was schemed as follows. The participants were taken from males and females of different age groups and different alcohol intake habits.
The control group remained as an intact one.
The experimental group—1—took in 1 l. of a dark beer of the “Klinskoie” type every evening from the X^th day till the X+13th day. That group took in the placebo every morning from the X+1th day till X+7th day, and every morning it took in from the X+8th day till X+14th day the solution of 250 mg of Unithiol in 100 g of drinking water.
The experimental group—2—took in 1 l. of a dark beer of the “Klinskoie” type every evening from the X^th day till the X+13th day. That group took in the solution of 250 mg of Unithiol in 100 g of drinking water every morning from the X+1th day till X+7th day, and every morning it took in the placebo from the X+8th day till X+14th day.
The measurements of the biochemical indices were taken in the mornings in every group, and in the control groups—after 30 minutes of placebo or Unithiol intake.
The following indices of the level of the per oxidation of lipids and the condition of the liver and the brain tissues were measured: • MDA—malondialdehyde • Triglycerides • Endogenous antioxidants: • Vit. A—vitamin A • Vit. E—vitamin E • Urate—serum urate • SH-gr.—SH-groups • Aminotransferase: • ALT—lanine aminotransferase • AST—aspartate aminotransferase

[2] = about 1.7 mg Unithiol per 1 kg of body weight in ration
[3] = Group 2: BR + 17 mg unithiol/kg feed days 15-42
[4] = Group 4: BR + heavy metals + 17 mg unithiol/kg feed, both days 15-42
[5] = Group 5: BR + heavy metals days 15-35, 34 mg unithiol/kg feed days 36-42
[6] = day X+7, Experimental group 2: beer every evening, 250 mg Unithiol mornings X+1 to X+7
[7] = day X+14, Experimental group 1: beer every evening, 250 mg Unithiol mornings X+8 to X+14

O=S(=O)([O-])CC(S)CS.[Na+] (centres unmarked) [Unithiol, Sodium 2,3-Dimercaptopropane sulfonate]
feathering condition (broilers; Unithiol in ration): Feathering condition improvement
fodder consumption (broilers; Unithiol in ration): increased fodder consumption
average weight gain (broilers; [2]): up to 35.8 g per day
gain rate, % from that in the control group (broilers; [2]): 145.9%
growth stimulating effect (broilers; about 1.7 mg per 1 kg of body weight in ration, beginning from the 15th day): growth stimulating effect
level of cadmium, zinc, lead and copper in meat and liver, lower than control group (broilers; experimental groups, 1.3-2.5 mg Unithiol per kg body weight): about 1.5 times
Heavy metal content: cadmium, kidneys (broiler chickens; [3]): 0.078 mg/kg
Heavy metal content: cadmium, liver (broiler chickens; [3]): 0.049 mg/kg
Heavy metal content: lead, kidneys (broiler chickens; [3]): 0.67 mg/kg
Heavy metal content: lead, liver (broiler chickens; [3]): 0.40 mg/kg
Heavy metal content: mercury, kidneys (broiler chickens; [3]): 0.055 mg/kg
Heavy metal content: mercury, liver (broiler chickens; [3]): 0.039 mg/kg
Heavy metal content: zinc, kidneys (broiler chickens; [3]): 95.3 mg/kg
Heavy metal content: zinc, liver (broiler chickens; [3]): 104.1 mg/kg
Heavy metal content: zinc, muscular tissue (broiler chickens; [3]): 50.2 mg/kg
Heavy metal content: cadmium, kidneys (broiler chickens; [4]): 3.76 mg/kg
Heavy metal content: cadmium, liver (broiler chickens; [4]): 2.98 mg/kg
Heavy metal content: cadmium, muscular tissue (broiler chickens; [4]): 0.37 mg/kg
Heavy metal content: lead, kidneys (broiler chickens; [4]): 8.50 mg/kg
Heavy metal content: lead, liver (broiler chickens; [4]): 4.80 mg/kg
Heavy metal content: lead, muscular tissue (broiler chickens; [4]): 0.83 mg/kg
Heavy metal content: mercury, kidneys (broiler chickens; [4]): 2.00 mg/kg
Heavy metal content: mercury, liver (broiler chickens; [4]): 2.18 mg/kg
Heavy metal content: mercury, muscular tissue (broiler chickens; [4]): 0.375 mg/kg
Heavy metal content: zinc, kidneys (broiler chickens; [4]): 103.1 mg/kg
Heavy metal content: zinc, liver (broiler chickens; [4]): 107.2 mg/kg
Heavy metal content: zinc, muscular tissue (broiler chickens; [4]): 50.4 mg/kg
Heavy metal content: cadmium, kidneys (broiler chickens; [5]): 2.97 mg/kg
Heavy metal content: cadmium, liver (broiler chickens; [5]): 2.30 mg/kg
Heavy metal content: cadmium, muscular tissue (broiler chickens; [5]): 0.24 mg/kg
Heavy metal content: lead, kidneys (broiler chickens; [5]): 7.00 mg/kg
Heavy metal content: lead, liver (broiler chickens; [5]): 3.40 mg/kg
Heavy metal content: lead, muscular tissue (broiler chickens; [5]): 0.54 mg/kg
Heavy metal content: mercury, kidneys (broiler chickens; [5]): 1.05 mg/kg
Heavy metal content: mercury, liver (broiler chickens; [5]): 1.12 mg/kg
Heavy metal content: mercury, muscular tissue (broiler chickens; [5]): 0.328 mg/kg
Heavy metal content: zinc, kidneys (broiler chickens; [5]): 98.2 mg/kg
Heavy metal content: zinc, liver (broiler chickens; [5]): 104.3 mg/kg
Heavy metal content: zinc, muscular tissue (broiler chickens; [5]): 50.3 mg/kg
heavy metal salt content in the depositing organs and meat (broiler chickens; use of unithiol): considerably reduce a heavy metal salt content
time to full hangover alleviating after intake ([1]; 250 mg Unithiol in 100 g drinking water in the morning after 1 l dark beer in the evening): 5 to 10 min
toxic activity of ethanol and products of its incomplete oxidation (carbonyl compounds) to liver and brain tissue ([1]; Unithiol intake during alcohol intake): reduce almost to the whole extent
MDA (urine) ([1]; day X+2, Experimental group 2: 1 l dark beer every evening, 250 mg Unithiol mornings X+1 to X+7): 0.62 nM/ml and 0.45 nM/ml (2×) and 0.47 nM/ml and 0.43 nM/ml and 0.99 nM/ml and 0.67 nM/ml
MDA (urine) ([1]; day X+4, Experimental group 2: beer every evening, 250 mg Unithiol mornings X+1 to X+7): 0.60 nM/ml and 0.58 nM/ml (2×) and 0.42 nM/ml and 0.51 nM/ml and 0.88 nM/ml and 0.53 nM/ml
ALT (blood) [1, 6]: 61 nmol (sec. 1) and 50 nmol (sec. 1) (2×) and 37 nmol (sec. 1) and 46 nmol (sec. 1) and 190 nmol (sec. 1) and 39 nmol (sec. 1)
AST (blood) [1, 6]: 48 nmol (sec. 1) and 46 nmol (sec. 1) and 31 nmol (sec. 1) and 41 nmol (sec. 1) and 37 nmol (sec. 1) and 172 nmol (sec. 1) and 30 nmol (sec. 1)
MDA (urine) [1, 6]: 0.55 nM/ml and 0.43 nM/ml and 0.49 nM/ml and 0.42 nM/ml and 0.38 nM/ml and 0.89 nM/ml and 0.56 nM/ml
SH-gr. (blood) [1, 6]: 378 MKM and 389 MKM (2×) and 383 MKM and 380 MKM and 197 MKM and 354 MKM
Triglycerides (blood) [1, 6]: 0.80 mmoi/l and 0.59 mmoi/l and 0.44 mmoi/l and 0.43 mmoi/l and 0.41 mmoi/l and 1.73 mmoi/l and 0.42 mmoi/l
Urate (blood) [1, 6]: 268 MKM and 267 MKM and 311 MKM and 295 MKM and 280 MKM and 208 MKM and 279 MKM
Vit. A (blood) [1, 6]: 1.9 µg/mL and 2.2 µg/mL and 2.8 µg/mL and 2.3 µg/mL and 2.7 µg/mL and 0.6 µg/mL and 1.6 µg/mL
Vit. E (blood) [1, 6]: 2.6 µg/mL and 3.3 µg/mL and 3.1 µg/mL and 3.8 µg/mL and 3.2 µg/mL and 1.0 µg/mL and 2.4 µg/mL
MDA (urine) ([1]; day X+9, Experimental group 1: 1 l dark beer every evening, placebo mornings X+1 to X+7, 250 mg Unithiol mornings X+8 to X+14): 0.7 nM/ml and 1.0 nM/ml and 0.90 nM/ml and 0.82 nM/ml
MDA (urine) ([1]; day X+11, Experimental group 1: beer every evening, 250 mg Unithiol mornings X+8 to X+14): 0.63 nM/ml and 0.80 nM/ml and 0.72 nM/ml and 0.54 nM/ml
ALT (blood) [1, 7]: 52 nmol (sec. 1) and 58 nmol (sec. 1) and 45 nmol (sec. 1) and 42 nmol (sec. 1)
AST (blood) [1, 7]: 41 nmol (sec. 1) and 50 nmol (sec. 1) and 40 nmol (sec. 1) and 35 nmol (sec. 1)
MDA (urine) [1, 7]: 0.69 nM/ml and 0.82 nM/ml and 0.64 nM/ml and 0.53 nM/ml
SH-gr. (blood) [1, 7]: 384 MKM and 375 MKM and 389 MKM and 392 MKM
Triglycerides (blood) [1, 7]: 0.65 mmoi/l and 0.59 mmoi/l and 0.71 mmoi/l and 0.64 mmoi/l
Urate (blood) [1, 7]: 265 MKM and 253 MKM and 285 MKM and 279 MKM
Vit. A (blood) [1, 7]: 1.4 mcg/ml (2×) and 1.2 mcg/ml and 2.1 mcg/ml
Vit. E (blood) [1, 7]: 2.8 µg/mL and 2.1 µg/mL and 2.2 µg/mL and 1.7 µg/mL
